# Results taken from patent US20220175798A1, “COMPOSITIONS COMPRISING OXYGENATED CHOLESTEROL SULFATE AND AT LEAST ONE OF POLYALKYLENE GLYCOL, CARBOXYMETHYL CELLULOSE AND POLYOXYLGLYCERIDE” (Durect Corporation, priority 2016, published 2022).
# Columns and labels:
# [1] = Oral pharmacokinetics in HFD-fed Golden Syrian hamsters; type: in vivo
# From the text: (§1) The subjects for the study were 40 Golden Syrian male hamsters. Two cohorts were provided with either regular diet (RD) or high fat diet (HFD) for 10 weeks. 25HC3 S treatment was initiated at the start of Week 11. Group 1 remained on a regular diet while HFD-fed hamsters were randomly divided into three treatment groups (Groups 2-4; Table 20).
# (§2) The Vehicle was a solution of 0.5% (w/v) CMC and 0.05% (v/v) Tween-80 in water. Powdered 25HC3 S was constituted into the vehicle solution to result in drug concentrations of 2.5 and 10 mg/mL. The suspensions were homogenized for approximately 5 minutes being combined, with 10 second breaks every 30-40 seconds and swirled before dosing to maintain homogeneity. The formulated test article was prepared weekly and kept at room temperature.
# (§3) Hamsters were treated with 25HC3 S by daily oral gavage for 6 weeks while maintained on RD or HFD. Each hamster received daily doses of 25HC3S or vehicle by oral gavage (N=10/group). There were two dose groups (Groups 3 and 4): 10 and 50 mg/kg, as specified in Table 20, with dose volumes of 4 and 5 mL/kg, respectively.
# For pharmacokinetic (PK) analysis, blood was collected following the first 25HC3S dose. Whole blood samples were collected via the jugular vein at pre-dose, 0.5, 2, 4, 8, 12 hours (h) post dose from each hamster; however, the last blood collection may have been collected by terminal cardiac puncture with the animals deeply anesthetized by isoflurane. Blood samples were placed into tubes containing K2EDTA. The blood was gently mixed to assure distribution of the anti-coagulant and the resulting plasma samples underwent analyses to quantify 25HC3S levels.
# [2] = test system: renal ischemia/reperfusion injury; experiment: Renal ischemia/reperfusion injury in rats; type: in vivo, Lewis rats; details: 50 mg/kg daily for 4 days oral gavage; Day 3; vs vehicle; not statistically significant
# Experimental: The subjects for the study were 18 adult male Lewis rats (9-11 weeks of age; 225-250 g). […] All animals were in healthy condition and admitted to the study.
# The Vehicle was a solution of 0.5% (w/v) CMC and 0.05% (v/v) Tween-80 in water. Powdered 25HC3 S was constituted into the vehicle solution to result in a drug concentration of 20 mg/mL. The suspensions were homogenized at 20,000 rotations per minute (rpm) for approximately 5 minutes after being combined, with 10 second breaks every 30-40 seconds and swirled before dosing to maintain homogeneity. The formulated test article was prepared weekly and kept at room temperature.
# All rats were anesthetized with intraperitoneal injection of pentobarbital (40 mg/kg). Ischemia of the left kidney was achieved by transient occlusion of the left renal artery and vein, and ureter for 50 min with a vascular micro-clip. The skin was temporarily closed during the ischemia period and the rats were put on a heating pad maintained at a temperature of 37° C. At reperfusion, the right kidney was removed before permanently closing the abdomen with 4-0 silk suture Animals were treated with vehicle (N=6) or 25HC3S (N=12) daily for 4 days, starting on the day before the surgery, (pre-treatment, Day −1) and for 2 days after the surgery. […] Serum creatinine (sCr) levels and BUN levels were examined on Day −2 (baseline), Day 3, and/or Day 7 after the surgery.
# [3] = test system: high fat diet (HFD)-fed hamsters; experiment: Pharmacodynamic study in HFD-fed Golden Syrian hamsters (serum chemistry, hepatic lipids, histopathology); type: in vivo
# From the text: as §1, §2, §3
# For pharmacodynamic measures of efficacy, clinical chemistry parameters were measured by collection of fasting serum throughout the study to assess the effects of HFD and 25HC3S treatment compared to animals on a RD and given the vehicle control.
# Assessments included, but were not limited to, assessment of activity, posture, respiration, emesis, seizure, hydration status, injection site assessment and overall body condition. At the end of the in-life portion of the study (Week 16), all animals were sacrificed and livers collected for biochemical and histopathology analyses.
# [4] = test system: non-alcoholic steatohepatitis (NASH); experiment: Accelerated mouse model of NASH (STZ + HFD), Part II; type: in vivo, C57BL/6J mice; details: 50 mg/kg daily oral
# Experimental: The subjects for the study were 36 C57BL/6J male mice. Mice were given 200 μg streptozotocin (STZ) at 2 days after birth and fed high fat diet (HFD) starting at four weeks of age until the remainder of the study (13 weeks of age). This intervention early in their lives induces accelerated progression of non-alcoholic steatohepatitis (NASH) and has been thoroughly characterized.
# The Vehicle was a solution of 0.5% (w/v) CMC and 0.05% (v/v) Tween-80 in water. Powdered 25HC3 S was constituted into the Vehicle solution to result in drug concentration of 10 mg/mL. The suspensions were homogenized for approximately 5 minutes (with 10 second breaks every 30-40 seconds) and swirled before dosing to maintain homogeneity. The formulated test article was prepared weekly and kept at room temperature.
# Mice were divided into treatment groups (N=10/group) and dosed daily by oral gavage with water (control), Vehicle or 50 mg/kg 25HC3 S starting from Week 9 to Week 13 (28 days treatment).
# [5] = Stability and impurity profile of 25HC3S suspension at room temperature by HPLC; type: physicochemical
# Experimental: The HPLC technique involved reverse phase HPLC for measuring the concentration of 25HC3 S in the solubility samples.
# Weigh 80 mg of 25HC3S (Lot #B, Passed through 20 mesh screen and Jet-milled, 3rd pass) into a 10 mL vial. Add to the vial, 8 mL of Vehicle PEG 3350 (with 0.15% L-Methionine and 0.9% NaCl). […] A total of 9 samples were dispensed using 1 mL BD syringes attached to 20G1″ or 25G⅝″ Terumo UTW needles for homogeneity analysis by HPLC (Study #14) and stability study (Study #17).
# [6] = HFD-fed hamsters, Group 3, 10 mg/kg daily oral gavage 6 weeks
# [7] = HFD-fed hamsters, Group 4, 50 mg/kg daily oral gavage 6 weeks
# [8] = Week 9 to 13, vs Vehicle, p<0.05
smiles,measurement,setting,value
"C[C@H](CCCC(C)(C)O)[C@H]1CC[C@H]2[C@@H]3CC=C4C[C@@H](OS(=O)(=O)[O-])CC[C@]4(C)[C@H]3CC[C@]12C.[Na+] [Formulation 25HC3S, 5-cholesten-3, 25-diol, 3-sulfate]",dose-normalized AUC,[1]; 10 mg/kg oral,195 ng·h/mL/mg
same,normalized Cmax,[1]; 10 mg/kg oral,32.2 ng/mL/mg
same,normalized Cmax,[1]; 50 mg/kg oral,only half of the 10 mg/kg dose
same,mean half-life,[1]; first oral dose,3 h
same,time of mean maximum plasma concentration,"[1]; first oral dose, both doses (10 and 50 mg/kg)",0.5 h
same,reduction of BUN levels,[2],5%
same,reduction of sCr levels,[2],~20%
same,hepatic cholesterol levels,"[3]; 10 mg/kg, 6 weeks",no effect
same,hepatic cholesterol levels,"[3]; 50 mg/kg (Group 4), 6 weeks",significantly reduced
same,reduction in serum cholesterol levels,"[3]; 50 mg/kg (Group 4), 6 weeks of treatment (Week 16), not statistically significant",15-18%
same,HFD-related liver weight gain,[3]; 6 weeks of treatment,no statistically significant effect
same,HDL and LDL cholesterol,"[3]; 6 weeks of treatment, HFD-fed hamsters",reduced both HDL and LDL cholesterol in a dose-dependent fashion
same,ALT and AST levels,"[3]; 6 weeks of treatment, compared to vehicle",reduced both ALT and AST levels
same,incidence of “normal-appearing” livers at gross necropsy,[3]; Group 4 (50 mg/kg),22%
same,Hepatic Free Fatty Acids,[3]; [6],7.3 (±0.6) Meg/mg protein
same,Hepatic Total Cholesterol,[3]; [6],155.5 (±37.9) μg/mg protein
same,Hepatic Triglyceride,[3]; [6],66.1 (±23.3) μg/mg protein
same,Hepatic Free Fatty Acids,[3]; [7],6.6 (±1.4) Meg/mg protein
same,Hepatic Triglyceride,[3]; [7],46.4 (±15.6) μg/mg protein
same,Hepatic Total Cholesterol,"[3]; HFD-fed hamsters, Group 4, 50 mg/kg daily oral gavage 6 weeks, p < 0.05 compared to Group 2",75.2 (±45.7) μg/mg protein
same,clinical signs,"[3]; PO daily for 6 weeks, hamsters",did not result in any notable clinical signs
same,liver histopathology (H&E and Oil Red O),"[3]; dose-dependent, compared to HFD-fed control (Group 2)","considerably less microvesicular changes, reduced Oil Red 0 staining, and milder inflammation"
same,serum triglyceride levels,"[3]; treated groups vs vehicle across 6 weeks, not statistically significant",trending higher
same,hepatic triglyceride levels,"[3]; with increasing dosage, 6 weeks, did not reach statistical significance",Reduced
same,NAS (NAFLD activity score),"[4]; Week 9 to 13, vs Vehicle",trend of reduction
same,hepatocyte ballooning,[4]; [8],significant reduction
same,percent area of fibrosis (Sirius red-positive area),[4]; [8],significantly decreased
same,extent of fibrosis,[4]; compared to baseline Week 9 mice,trended lower
same,odor after storage,"[5]; 25HC3S in Vehicle PEG 3350 with L-Methionine, room temperature for a few months",produced a sulfur-like odor
same,% peak area for 25HC3S,"[5]; after 2 weeks at RT, 25 mg/mL in Vehicle PEG 3350 (with 0.15% L-Methionine), 25HC3S plus two impurities as 100%, n=2",approximately 99.17%
same,drug potency,"[5]; after 2 weeks at RT, time 0 concentration as 100%, n=2, 25 mg/mL in Vehicle PEG 3350 (with 0.15% L-Methionine)",103.7%
same,25HC3S by peak area normalization,"[5]; final suspension formulation 25 mg/mL, room temperature up to 14 days",99.172%
same,stable at ambient room temperature,[5]; suspension 25 mg/mL in Vehicle PEG 3350 (with 0.15% L-Methionine),at least 2 weeks
